According to patent US11053204B2, “Pyrimidinyloxy benzene derivatives as herbicides” (FMC Corporation, priority 2015, dated 2021):

Experiments:
Type in all cases: in vivo
kochia (Kochia scoparia) [1] = test: Test A preemergence, visual injury rating; details: Bassia scoparia, pre-emergence, 240 h, 0 to 100 scale (0 no effect, 100 complete control), read-out: Kochia plant response rating
In short: (§1)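 Greenhouse pot test, loam/sand soil. Formulation: non-phytotoxic solvent mix plus surfactant. Pre: directed spray onto soil after sowing. Post: plants at 1–2 leaf, 2–10 cm. Rated visually vs untreated controls at ~10 d, 0 (no effect) to 100 (complete control).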

[2] = tested on: barnyardgrass (Echinochloa crus-galli); test: Test A preemergence, visual injury rating; details: Echinochloa crus-galli, pre-emergence, 240 h, 0 to 100 scale (0 no effect, 100 complete control), read-out: Barnyardgrass plant response rating
In short: as §1

[3] = tested on: giant foxtail (Setaria faberii); test: Test A preemergence, visual injury rating; details: Setaria faberi, pre-emergence, 240 h, 0 to 100 scale (0 no effect, 100 complete control), read-out: Foxtail, Giant plant response rating
In short: as §1

[4] = tested on: Italian ryegrass (Lolium multiflorum); test: Test A preemergence, visual injury rating; details: Lolium multiflorum, pre-emergence, 240 h, 0 to 100 scale (0 no effect, 100 complete control), read-out: Ryegrass, Italian plant response rating
In short: as §1

[5] = tested on: pigweed (Amaranthus retroflexus); test: Test A preemergence, visual injury rating; details: Amaranthus retroflexus, pre-emergence, 240 h, 0 to 100 scale (0 no effect, 100 complete control), read-out: Pigweed plant response rating
In short: as §1

[6] = tested on: ragweed (common ragweed, Ambrosia elatior); test: Test A preemergence, visual injury rating; details: Ambrosia artemisiifolia, pre-emergence, 240 h, 0 to 100 scale (0 no effect, 100 complete control), read-out: Ragweed plant response rating
In short: as §1

corn (Zea mays) = test: Test C postemergence, plant response rating; details: Zea mays, post-emergence
In short: (§2)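 Both timings shared one formulation, a non-phytotoxic solvent mixture with surfactant, and a greenhouse period of 13 to 15 d. Preemergence used seeded loam/sand or silt loam soil, postemergence used 2 to 18 cm plants; visual ratings ran from 0 (no effect) to 100 (complete control).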

[7] = tested on: crabgrass, large (large crabgrass, Digitaria sanguinalis); test: Test C postemergence, plant response rating; details: Digitaria sanguinalis, post-emergence
In short: as §2

kochia (Kochia scoparia) [8] = test: Test C postemergence, plant response rating; details: Bassia scoparia, post-emergence
In short: as §2

[9] = tested on: barnyardgrass (Echinochloa crus-galli); test: Test C postemergence, plant response rating; details: Echinochloa crus-galli, post-emergence
In short: as §2

[10] = tested on: galium (catchweed bedstraw, Galium aparine); test: Test C postemergence, plant response rating; details: Galium, post-emergence
In short: as §2

[11] = tested on: blackgrass (Alopecurus myosuroides); test: Test C postemergence, plant response rating; details: Alopecurus myosuroides, post-emergence
In short: as §2

[12] = tested on: morningglory (Ipomoea coccinea); test: Test C postemergence, plant response rating; details: Ipomoea, post-emergence
In short: as §2

[13] = tested on: wheat (winter wheat, Triticum aestivum); test: Test C postemergence, plant response rating; details: Triticum aestivum, post-emergence
In short: as §2

[14] = tested on: nutsedge, yellow (yellow nutsedge, Cyperus esculentus); test: Test C postemergence, plant response rating; details: Cyperus, post-emergence
In short: as §2

[15] = tested on: oilseed rape (Brassica napus); test: Test C postemergence, plant response rating; details: Brassica napus, post-emergence
In short: as §2

[16] = 62 g ai/ha, scale 0 to 100 (0 no effect, 100 complete control)
[17] = 125 g ai/ha, scale 0 to 100 (0 no effect, 100 complete control)

Q: What does the source list for `CC(CC(F)(F)F)OC(=O)c1c(Br)cccc1Oc1ncc(Cl)cn1` (stereo not shown) [Compound 16, 3,3,3-trifluoro-1-methylpropyl 2-bromo-6-[(5-chloro-2-pyrimidinyl)oxy]benzoate]?
A: pest or weed control at 125 g/ha (kochia (Kochia scoparia) [1]; 125 g ai/ha): 90%; pest or weed control at 500 g/ha (kochia (Kochia scoparia) [1]; 500 g ai/ha): 80%; pest or weed control at 125 g/ha ([2]; 125 g ai/ha): 30%; pest or weed control at 500 g/ha ([2]; 500 g ai/ha): 100%; pest or weed control at 125 g/ha ([3]; 125 g ai/ha): 90%; pest or weed control at 500 g/ha ([3]; 500 g ai/ha): 100%; pest or weed control at 125 g/ha ([4]; 125 g ai/ha): 0%; pest or weed control at 500 g/ha ([4]; 500 g ai/ha): 20%; pest or weed control at 125 g/ha ([5]; 125 g ai/ha): 90%; pest or weed control at 500 g/ha ([5]; 500 g ai/ha): 100%; pest or weed control at 125 g/ha ([6]; 125 g ai/ha): 0%; pest or weed control at 500 g/ha ([6]; 500 g ai/ha): 0%; Corn plant response rating (crop injury, 0 = no effect, 100 = complete kill) at 16 g/ha (corn (Zea mays); 16 g ai/ha, scale 0 to 100): 5%; Corn plant response rating (crop injury, 0 = no effect, 100 = complete kill) at 31 g/ha (corn (Zea mays); 31 g ai/ha, scale 0 to 100): 15%; plant injury at 62 g/ha (corn (Zea mays); [16]): 15%; plant injury at 125 g/ha (corn (Zea mays); [17]): 20%; pest or weed control at 16 g/ha ([7]; 16 g ai/ha, scale 0 to 100): 10%; pest or weed control at 31 g/ha ([7]; 31 g ai/ha, scale 0 to 100): 15%; pest or weed control at 62 g/ha [7, 16]: 25%; pest or weed control at 125 g/ha [7, 17]: 25%; pest or weed control at 16 g/ha (kochia (Kochia scoparia) [8]; 16 g ai/ha, scale 0 to 100): 40%; pest or weed control at 31 g/ha (kochia (Kochia scoparia) [8]; 31 g ai/ha, scale 0 to 100): 50%; pest or weed control at 62 g/ha (kochia (Kochia scoparia) [8]; [16]): 80%; pest or weed control at 125 g/ha (kochia (Kochia scoparia) [8]; [17]): 90%; pest or weed control at 16 g/ha ([9]; 16 g ai/ha, scale 0 to 100): 5%; pest or weed control at 31 g/ha ([9]; 31 g ai/ha, scale 0 to 100): 10%; pest or weed control at 62 g/ha [9, 16]: 20%; pest or weed control at 125 g/ha [9, 17]: 20%; pest or weed control at 16 g/ha ([10]; 16 g ai/ha, scale 0 to 100): 45%; pest or weed control at 31 g/ha ([10]; 31 g ai/ha, scale 0 to 100): 50%; pest or weed control at 62 g/ha [10, 16]: 55%; pest or weed control at 125 g/ha [10, 17]: 55%; pest or weed control at 16 g/ha ([11]; 16 g ai/ha, scale 0 to 100): 0%; pest or weed control at 31 g/ha ([11]; 31 g ai/ha, scale 0 to 100): 0%; pest or weed control at 62 g/ha [11, 16]: 0%; pest or weed control at 125 g/ha [11, 17]: 5%; pest or weed control at 16 g/ha ([12]; 16 g ai/ha, scale 0 to 100): 5%; pest or weed control at 31 g/ha ([12]; 31 g ai/ha, scale 0 to 100): 30%; pest or weed control at 62 g/ha [12, 16]: 40%; pest or weed control at 125 g/ha [12, 17]: 75%; plant injury at 16 g/ha ([13]; 16 g ai/ha, scale 0 to 100): 0%; plant injury at 31 g/ha ([13]; 31 g ai/ha, scale 0 to 100): 0%; plant injury at 62 g/ha ([13]; 62 g ai/ha, scale 0 to 100 (0 no effect, 100 complete control), read-out: Wheat plant response rating): 0%; plant injury at 125 g/ha [13, 17]: 0%; pest or weed control at 16 g/ha ([14]; 16 g ai/ha, scale 0 to 100): 0%; pest or weed control at 31 g/ha ([14]; 31 g ai/ha, scale 0 to 100): 5%; pest or weed control at 62 g/ha [14, 16]: 10%; pest or weed control at 125 g/ha [14, 17]: 20%; plant injury at 16 g/ha ([15]; 16 g ai/ha, scale 0 to 100): 15%; plant injury at 31 g/ha ([15]; 31 g ai/ha, scale 0 to 100): 35%; plant injury at 62 g/ha [15, 16]: 60%; plant injury at 125 g/ha [15, 17]: 70%
